Active and inactive are the calls of the source. The calls are words filed in the database; no cut-off is given here.

The values below come from ChEMBL document CHEMBL4392840, “Further sesquiterpenoids from the rhizomes of Homalomena occulta and their anti-inflammatory activity” (Bioorg Med Chem Lett, 2019).

Common to all, as to assay type: functional, cell-based
Assay [1] deals with RAW264.7. Kind of assay: Antiinflammatory activity in mouse RAW264.7 cells assessed as inhibition of LPS-induced COX2 mRNA expression at 10 uM preincubated for 30 mins followed by LPS-stimulation and measured after 18 hrs by QuantiFast SYBR Green dye based RT-PCR analysis.
Assay [2] concerns RAW264.7. Kind of assay: Antiinflammatory activity in mouse RAW264.7 cells assessed as inhibition of LPS-induced COX2 mRNA expression preincubated for 30 mins followed by LPS-stimulation and measured after 18 hrs by QuantiFast SYBR Green dye based RT-PCR analysis.
The test system of assay [3] is RAW264.7. Kind of assay: Antiinflammatory activity in mouse RAW264.7 cells assessed as inhibition of LPS-induced COX2 expression at 1 to 10 uM preincubated for 30 mins followed by LPS-stimulation and measured after 18 hrs by Western blot analysis.
For assay [4], the system named is RAW264.7. Kind of assay: Antiinflammatory activity in mouse RAW264.7 cells assessed as inhibition of LPS-induced COX2 mRNA expression at 50 uM preincubated for 30 mins followed by LPS-stimulation and measured after 18 hrs by QuantiFast SYBR Green dye based RT-PCR analysis.
The subject of assay [5] is RAW264.7. Kind of assay: Antiinflammatory activity in mouse RAW264.7 cells assessed as inhibition of LPS-induced PGE2 formation preincubated for 30 mins followed by LPS-stimulation and measured after 18 hrs by ELISA. In general terms: An ELISA detects its analyte on a solid surface through an enzyme-linked reagent.

Consider `CC1(C)[C@H]2[C@H]3[C@@H](CC[C@]3(C)O)[C@](C)(O)CC[C@H]21`, for which the inhibition entry with RAW264.7 [1] and in the assay with RAW264.7 [3] was “Active” each time. In addition, the inhibition entry in the assay on RAW264.7 [2] was “Dose-dependent effect”.

In the case of `Cc1cnc(NC(=O)C2=C(O)c3ccccc3S(=O)(=O)N2C)s1`, the inhibition result with RAW264.7 [4] is “Active”.

Consider `C[C@@H]1CC[C@H]2[C@@H]1[C@H]1[C@@H](CC[C@@]2(C)O)C1(C)C`, for which the inhibition result with RAW264.7 [1] and in the assay with RAW264.7 [3] was “Active” throughout. For the same compound, the inhibition result in the assay on RAW264.7 [2] was “Dose-dependent effect”.

For `CC(C)[C@@H](O)[C@H]1CC[C@@]2(C)[C@@H]1[C@]1(C)CC[C@H]2O1`, the inhibition result with RAW264.7 [1] and with RAW264.7 [3] was “Active” each time. The inhibition result in the assay on RAW264.7 [2] and in the assay with RAW264.7 [5] was “Dose-dependent effect” each time.
